Drawing on patent US20170275302A1, “INHIBITORS OF THE RENAL OUTER MEDULLARY POTASSIUM CHANNEL” (Merck Sharp & Dohme Corp., priority 2014, published 2017), this text covers IC50 for 35 compounds.

Structures are written as SMILES. pIC50: −log10 of the molar value.

In this test the target is T1, hROMK (hKir1.1) (Homo sapiens, UniProt P48048).
T1 construct: expressed in transfected cells
T1 sequence (P48048 1-391): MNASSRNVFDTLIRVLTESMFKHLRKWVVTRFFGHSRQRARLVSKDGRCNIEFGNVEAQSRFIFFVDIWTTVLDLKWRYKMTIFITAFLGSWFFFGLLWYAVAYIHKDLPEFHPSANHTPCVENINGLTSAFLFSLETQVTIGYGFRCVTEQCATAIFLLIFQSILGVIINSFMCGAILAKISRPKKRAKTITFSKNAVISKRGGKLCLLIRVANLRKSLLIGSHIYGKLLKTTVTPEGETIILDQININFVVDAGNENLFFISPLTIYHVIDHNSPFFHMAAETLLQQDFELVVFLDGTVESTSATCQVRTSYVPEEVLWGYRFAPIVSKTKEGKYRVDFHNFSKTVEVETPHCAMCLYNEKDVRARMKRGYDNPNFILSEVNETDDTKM
Briefly: Thallium Flux Assay (ROMK channel functional thallium flux assay, FLIPR-Tetra). The format is cell-based. To be noted: HEK293 cells stably expressing hROMK (hKir1.1); FluxOR thallium flux, 30 min compound incubation; concentration inhibiting 50% of ROMK thallium flux signal. The protocol: The following Thallium Flux Assay was performed on each of the final product compounds in the Examples.
HEK293 cells stably expressing hROMK (hKir1.1) were grown at 37° C. in a 10% CO2 humidified incubator in complete growth media: Dulbecco's Modified Eagle Medium supplemented with non-essential amino acids, Penicillin/Streptomycin/Glutamine, G418 and FBS. At >80% confluency, the media was aspirated from the flask and rinsed with 10 mL calcium/magnesium-free phosphate buffered saline (PBS). 5 mL of 1× trypsin (prepared in Ca/Mg Free PBS) was added to T-225 flask and the flask was returned to 37° C./CO2 incubator for 2-3 minutes. To dislodge the cells, the side of the flask was gently banged with one's hand. The cells were completely titrated and then the cells were transferred to 25 mL complete media, centrifuged at 1,500 rpm for 6 min followed by resuspension in complete growth media, and the cell concentration was determined. For typical re-seeding, 4E6 cells/T-225 flask will attain >80% confluency in 4 days. Under ideal growth conditions and appropriate tissue culture practices, this cell line is stable for 40-45 passages.
Compound Buffer (per microplate): 20 mL Probenecid/Assay Buffer; 0.3 mM ouabain (10 mM ouabain in water can be stored in amber bottle/aluminum foil at room temperature); Test compound
Stimulant Buffer (prepared at 5× final concentration in 1× FluxOR™Chloride-Free Buffer): 7.5 mM thallium sulfate and 0.75 mM potassium sulfate (to give a final assay concentration of 3 mM Thallium/0.3 mM potassium). Store at 4° C. when not in use. If kept sterile, this solution is good for months.
The ROMK channel functional thallium flux assay was performed in 384 wells, using the FLIPR-Tetra instrument. HEK-hKir1.1 cells were seeded in Poly-D-Lysine microplates and kept in a 37° C.-10% CO2 incubator overnight. On the day of the experiment, the growth media was replaced with the FluxOR™ reagent loading buffer and incubated, protected from light, at ambient temperature (23-25° C.) for 90 min. The loading buffer was replaced with assay buffer±test compound followed by 30 min incubation at ambient temperature, where the thallium/potassium stimulant was added to the microplate.
• 1. Seed HEK-hKir1.1 cells (50 μl at 20,000 cells/well) in 384-well PDL coated Microplates • 2. Allow cells to adhere overnight in humidified 37° C./10% CO2 incubator • 3. Completely remove cell growth media from microplate and replace with 25 μl loading buffer • 4. Incubate Microplate at room temperature, protected form light, for 90 min • 5. Remove loading buffer and replace with 25 μl 1× Assay Buffer±test compound. • 6. Incubate microplate at room temperature, protected from light, for 30 min • 7. At FLIPR-Tetra 384: Add stimulant (thallium/potassium) solution to microplate and monitor fluorescence. Excitation=400 nm, Emission=460 & 580 nm. Collect data for ˜10 min.
The fluorescence intensity of wells containing 3 μM of a standard control ROMK inhibitor of the present invention was used to define the ROMK-sensitive component of thallium flux. Fluorescence in the presence of test compounds was normalized to control values to provide % fluorescence change. IC50 values represent the concentration of compound that inhibited 50% of the ROMK thallium flux signal.

`OC(CN1CCC2(CC1)CCN(c1ccc3nncn3n1)C2)c1ccc(-n2cnnn2)nc1` (racemic) [Example 52] had a pIC50 of 7.08.
Turning to `Cc1c(C(O)CN2CCC3(CC2)CCN(c2ccc4nncn4n2)C3)ccc(C#N)c1F` (racemic) [Example 53], the negative logarithm of the IC50 (pIC50) is 7.73.
As to `Cc1c(F)c(C#N)cc(F)c1C(O)CN1CCC2(CC1)CCN(c1ccc3nncn3n1)C2` (racemic) [Example 54, 4-(2-(2-([1,2,4]triazolo[4,3-b]pyridazin-6-yl)-2,8-diazaspiro[4.5]decan-8-yl)-1-hydroxyethyl)-2,5-difluoro-3-methylbenzonitrile], the negative-log IC50 (pIC50) was 7.44.
The value for `Cc1cc(C#N)c(F)cc1C(O)CN1CCC2(CC1)CCN(c1ccc3nncn3n1)C2` (racemic) [Example 55] was 7.59; that for `OC(CN1CCC2(CCN(c3ccc4nncn4n3)CC2)C1)c1ccc(-n2cnnn2)nc1` (racemic) [Example 69] was 7.14.
In turn, `Cc1c([C@@H](O)CN2CCC3(CC2)CCN(c2nccn4nccc24)C3)ccc2c1COC2=O` [Example 1, (R)-5-(1-hydroxy-2-(2-(pyrazolo[1,5-α]pyrazin-4-yl)-2,8-diazaspiro[4.5]decan-8-yl)ethyl)-4-methylisobenzofuran-1(3H)-one] gave a pIC50 of 6.13.
With `Cc1c([C@@H](O)CN2CCC3(CC2)CCN(c2nc4cc(C#N)ccc4[nH]2)C3)ccc2c1COC2=O` [Example 2], the negative logarithm of the IC50 (pIC50) was 6.88. This pIC50 lies 0.75 log units higher than the previous one.
`Cc1c([C@@H](O)CN2CCC3(CC2)CCN(c2nccn4cnnc24)C3)ccc2c1COC2=O` [Example 3] showed a negative-log IC50 (pIC50) of 6.63.
In turn, `Cc1c([C@@H](O)CN2CCC3(CC2)CCN(c2nc4cc(F)ccc4o2)C3)ccc2c1COC2=O` [Example 4] had a negative logarithm of the IC50 (pIC50) of 6.11.
`Cc1c([C@@H](O)CN2CCC3(CC2)CCN(c2ccc4nncn4n2)C3)ccc2c1COC2=O` [Example 5, (R)-5-(2-(2-([1,2,4]triazolo[4,3-b]pyridazin-6-yl)-2,8-diazaspiro[4.5]decan-8-yl)-1-hydroxyethyl)-4-methylisobenzofuran-1 (3H)-one] had a negative-log IC50 (pIC50) of 7.13.
The value for `Cc1c([C@@H](O)CN2CCC3(CC2)CCN(c2nc4c(S(N)(=O)=O)cccc4s2)C3)ccc2c1COC2=O` [Example 6] was 6.52; that for `Cc1c([C@@H](O)CN2CCC3(CC2)CCN(C2=Nc4ccccc4C4=NCCN42)C3)ccc2c1COC2=O` [Example 7] was 6.21; that for `Cc1c([C@@H](O)CN2CCC3(CC2)CCN(c2ccn4nccc4n2)C3)ccc2c1COC2=O` [Example 8] was 6.61.
The value for `Cc1c([C@@H](O)CN2CCC3(CC2)CCN(c2nn4cnnc4c4ccccc24)C3)ccc2c1COC2=O` [Example 9] was 6.58; that for `Cc1c([C@@H](O)CN2CCC3(CC2)CCN(c2ccc4nnnn4n2)C3)ccc2c1COC2=O` [Example 10, (R)-5-(1-hydroxy-2-(2-(tetrazolo[1,5-b]pyridazin-6-yl)-2,8-diazaspiro[4.5]decan-8-yl)ethyl)-4-methylisobenzofuran-1(3H)-one] was 7.89; that for `CSCc1nnc2ccc(N3CCC4(CCN(C[C@H](O)c5ccc6c(c5C)COC6=O)CC4)C3)nn12` [Example 11] was 7.32.
The value for `Cc1c([C@@H](O)CN2CCC3(CC2)CCN(c2ccc4nnc(-c5ccco5)n4n2)C3)ccc2c1COC2=O` [Example 13] was 6.39; that for `Cc1c([C@@H](O)CN2CCC3(CC2)CCN(c2ccc4nnc(C5CC5)n4n2)C3)ccc2c1COC2=O` [Example 14] was 6.69.
As for `Cc1c([C@@H](O)CN2CCC3(CC2)CCN(c2ccc4nnc(C(F)(F)F)n4n2)C3)ccc2c1COC2=O` [Example 15], the pIC50 was 6.54.
The value for `CCc1nnc2ccc(N3CCC4(CCN(C[C@H](O)c5ccc6c(c5C)COC6=O)CC4)C3)nn12` [Example 16] was 7.01.
The value for `Cc1c([C@@H](O)CN2CCC3(CC2)CCN(c2ncc4c(C)n[nH]c4n2)C3)ccc2c1COC2=O` [Example 17] was 6.31; that for `Cc1c([C@@H](O)CN2CCC3(CCCN(c4nccn5cnnc45)C3)C2)ccc2c1COC2=O` (some centres unmarked) [Example 18] was 6.47; that for `Cc1c([C@@H](O)CN2CCC3(CC2)CCN(c2ccc4nnc(C)n4n2)C3)ccc2c1COC2=O` [Example 19] was 7.13.
Compound `COc1cc([C@@H](F)CN2CCC3(CC2)CCN(c2ccc4nncn4n2)C3)ncc1C#N` [Example 21] had a pIC50 of 6.63. Compared with the last compound, the pIC50 is 0.50 log units lower.
Compound `COc1cc([C@H](CN2CCC3(CC2)CCN(c2ccc4nncn4n2)C3)OC(=O)C2CC2)ncc1C#N` [Example 22] gave a pIC50 of 6.67.
The value for `COc1cc([C@H](CN2CCC3(CC2)CCN(c2ccc4nncn4n2)C3)OC(C)=O)ncc1C#N` [Example 23, (S)-2-(2-([1,2,4]triazolo[4,3-β]pyridazin-6-yl)-2,8-diazaspiro[4.5]decan-8-yl)-1-(5-cyano-4-methoxypyridin-2-yl)ethyl acetate] was 6.97; that for `Cc1c([C@@H](O)CN2CCC3(CC2)CCN(c2cnc4nncn4c2)C3)ccc2c1COC2=O` [Example 24, (R)-5-(2-(2-([1,2,4]triazolo[4,3-a]pyrimidin-6-yl)-2,8-diazaspiro[4.5]decan-8-yl)-1-hydroxyethyl)-4-methylisobenzofuran-1(3H)-one] was 6.07.
The value for `Cc1c([C@@H](O)CN2CCC3(CC2)CCN(c2ccc4nsnc4c2)C3)ccc2c1COC2=O` [Example 25, (R)-5-(2-(2-(benzo[c][1,2,5]thiadiazol-5-yl)-2,8-diazaspiro[4.5]decan-8-yl)-1-hydroxyethyl)-4-methylisobenzofuran-1 (3H)-one] was 6.47; that for `COC1OC(=O)c2ccc(N3CCC4(CCN(C[C@H](O)c5ccc6c(c5C)COC6=O)CC4)C3)cc21` (stereo partly drawn) [Example 26, 5-((1R)-1-hydroxy-2-(2-(3-methoxy-1-oxo-1,3-dihydroisobenzofuran-5-yl)-2,8-diazaspiro[4.5]decan-8-yl)ethyl)-4-methylisobenzofuran-1(3H)-one] was 6.70.
`Cc1c([C@@H](O)CN2CCC3(CC2)CCN(c2snc4ncccc24)C3)ccc2c1COC2=O` [Example 27, (R)-5-(1-hydroxy-2-(2-(isothiazolo[3,4-b]pyridin-3-yl)-2,8-diazaspiro[4.5]decan-8-yl)ethyl)-4-methylisobenzofuran-1(3H)-one] showed a negative logarithm of the IC50 (pIC50) of 6.50. Against the preceding compound, the pIC50 is 0.20 log units lower.
The compound `Cc1c([C@@H](O)CN2CCC3(CC2)CCN(c2cc4cncnc4s2)C3)ccc2c1COC2=O` [Example 28, (R)-5-(1-Hydroxy-2-(2-(thieno[2,3-d]pyrimidin-6-yl)-2,8-diazaspiro[4.5]decan-8-yl)ethyl)-4-methylisobenzofuran-1 (3H)-one] showed a pIC50 of 6.58.
The compound `Cc1c([C@@H](O)CN2CCC3(CC2)CCN(c2cnc4snnc4c2)C3)ccc2c1COC2=O` [Example 29, (R)-5-(2-(2-([1,2,3]thiadiazolo[5,4-b]pyridin-6-yl)-2,8-diazaspiro[4.5]decan-8-yl)-1-hydroxyethyl)-4-methylisobenzofuran-1(3H)-one] had a pIC50 of 6.52.
The value for `Cc1c([C@@H](O)CN2CCC3(CC2)CCN(c2cnc4snnc4c2)C3=O)ccc2c1COC2=O` [Example 30] was 7.08; that for `Cc1c([C@@H](O)CN2CCC3(CC2)CCN(c2ccc4nsnc4c2)C3=O)ccc2c1COC2=O` [Example 31] was 6.57; that for `Cc1c([C@@H](O)CN2CCC3(CC2)CCN(c2cc4ccncc4s2)C3=O)ccc2c1COC2=O` [Example 32] was 7.31.

Usually pIC50 stands for −log10 of the IC50, conventionally taken in molar units. Low values mean a large IC50, high ones a small IC50.
